In PubChem BioAssay (NCI):
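Cells were grown in 96-well plates and exposed to each compound for 48 hours at five concentrations; endpoints were interpolated linearly between bracketing concentrations, or set to the highest concentration if not reached. At the GI50, growth is halved. TGI is the concentration that stops growth completely.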

Columns and labels:
Assay in all cases: NCI-60 cell line screen, 48 h
HCT-15 colon = system: HCT-15 colon
LXFL 529 NSCLC = system: LXFL 529 NSCLC
ACHN renal = system: ACHN renal
SNB-75 CNS = system: SNB-75 CNS
OVCAR-8 ovarian = system: OVCAR-8 ovarian
OVCAR-5 ovarian = system: OVCAR-5 ovarian
K-562 leukemia = system: K-562 leukemia
DLD-1 colon = system: DLD-1 colon
HOP-92 NSCLC = system: HOP-92 NSCLC
PC-3 prostate = system: PC-3 prostate

Row | Compound | TGI (HCT-15 colon) [µM] | TGI (LXFL 529 NSCLC) [µM] | TGI (ACHN renal) [µM] | TGI (SNB-75 CNS) [µM] | TGI (OVCAR-8 ovarian) [µM] | TGI (OVCAR-5 ovarian) [µM] | TGI (K-562 leukemia) [µM] | TGI (DLD-1 colon) [µM] | TGI (HOP-92 NSCLC) [µM] | GI50 (HOP-92 NSCLC) [µM] | GI50 (HCT-15 colon) [µM] | GI50 (DLD-1 colon) [µM] | GI50 (LXFL 529 NSCLC) [µM] | GI50 (ACHN renal) [µM] | GI50 (SNB-75 CNS) [µM] | GI50 (OVCAR-8 ovarian) [µM] | GI50 (OVCAR-5 ovarian) [µM] | GI50 (PC-3 prostate) [µM] | TGI (PC-3 prostate) [µM] | GI50 (K-562 leukemia) [µM]
1 | C=C=C(C(=O)OC)S(=O)c1ccccc1[N+](=O)[O-] (stereo not drawn) | > 100 | > 100 | > 100 | > 100 | > 100 | > 100 | > 100 | – | – | – | – | – | – | – | – | – | – | – | – | –
2 | CN(C)c1ccc(/C=C/C(=O)[O-])cc1.CN(C)c1ccc(/C=C/C(=O)[O-])cc1.[Cu+2] | > 100 | > 100 | > 100 | > 100 | > 100 | 60.3 | > 100 | > 100 | – | – | – | – | – | – | – | – | – | – | – | –
3 | COc1ccc(C(CCC(C)=O)C(=O)O)cc1OC (stereo not drawn) | > 100 | – | > 100 | > 100 | > 100 | > 100 | > 100 | > 100 | > 100 | – | – | – | – | – | – | – | – | – | – | –
4 | C=CC(=O)NCCSCCCOC1(C(=O)O)CC(O)C(NC(C)=O)C(C(O)C(O)CO)O1 (stereo not drawn) | > 100 | > 100 | > 100 | – | > 100 | > 100 | > 100 | > 100 | > 100 | – | – | – | – | – | – | – | – | – | – | –
5 | c1ccc([CH2][Sn]([CH2]c2ccccc2)([O]c2cccc3cccnc23)[O]c2cccc3cccnc23)cc1 | 1.37 | 1.2 | 2.2 | 1.81 | 1.59 | 1.06 | – | 1.35 | 2.46 | 1.19 | 0.394 | 0.398 | 0.32 | 1.03 | 0.468 | 0.515 | 0.338 | – | – | –
6 | Cc1cc([N+](=O)[O-])ccc1NC(=O)C(=O)C(C(=O)c1ccccc1-c1ccccc1)C1OC(=O)c2ccccc21 (stereo not drawn) | 36.8 | 30 | > 100 | – | 77.1 | 28.9 | 89.3 | – | 34 | – | – | – | – | – | – | – | – | – | – | –
7 | C[C@]12CC[C@@H]3c4cc(OC(F)F)c(O)cc4CC[C@H]3[C@@H]1CC[C@@H]2OS(N)(=O)=O | 26.8 | – | > 100 | 0.945 | 68.1 | > 100 | > 100 | – | 79.2 | 6.84 | 0.458 | – | – | 0.735 | 0.23 | 1.55 | 3.51 | 0.729 | 97.6 | 0.38
8 | C[C@]12CCc3nc(Nc4cccc(O)c4)sc3C1=CC[C@@H]1[C@@H]2CC[C@]2(C)/C(=N\NC(N)=S)CC[C@@H]12 | 2.64 | – | 6 | 7.01 | 10.9 | 7.77 | > 100 | – | 7.6 | 2.02 | 1.15 | – | – | 2.15 | 0.792 | 2.57 | 2.6 | 1.7 | 6.35 | 2.15
9 | CCOC(=O)[C@@H](C)C[C@H](Cc1ccccc1)NC(=O)c1nc([C@@H](C[C@H](C(C)C)N(C)C(=O)[C@@H](NC(=O)[C@H]2CCCCN2C)C(C)C)OC(C)=O)sc1CCOCc1ccccc1 | 1.51 | – | 3.06 | 2.76 | 2.08 | 4.11 | 1.92 | – | 2.34 | 0.109 | 0.262 | – | – | 0.117 | 0.0433 | 0.216 | 0.246 | 0.0521 | 2.41 | 0.0358
10 | COC(=O)[C@@H](C)C[C@H](Cc1cn(C)c2ccccc12)NC(=O)c1csc([C@@H](C[C@H](C(C)C)N(C)C(=O)[C@@H](NC(=O)[C@H]2CCCCN2C)C(C)C)OC(C)=O)n1 | > 16.7 | – | > 16.7 | > 14 | > 16.7 | > 16.7 | > 16.7 | – | 4.02 | 0.0163 | 0.0665 | – | – | 0.153 | 0.00887 | 0.0302 | 0.0671 | 0.0139 | > 16.7 | 0.00547
11 | Cn1cc(C2=C(c3ccccc3[N+](=O)[O-])C(=O)NC2=O)c2ccccc21 | > 25 | – | > 23.4 | 2.39 | > 25 | > 25 | > 25 | – | 16.6 | 6.08 | 5.16 | – | – | 1.65 | 0.0705 | 6.07 | 8.64 | 1.65 | 11.6 | 2.14
12 | COC(=O)C(=O)C(C(=O)C(=O)Nc1cccc(C(C)=O)c1)c1nc2ccc([N+](=O)[O-])cc2[nH]c1=O (stereo not drawn) | > 100 | > 100 | > 100 | – | > 100 | > 100 | > 100 | > 100 | > 100 | – | – | – | – | – | – | – | – | – | – | –
13 | CC1(C)N=C(N)N=C(N)N1c1ccc(CCCCc2ccccc2)c(Cl)c1 | 35.5 | – | 22.1 | 5.87 | > 39.7 | 22.4 | > 51.2 | – | 4.48 | 0.464 | 0.522 | – | – | 0.461 | 0.124 | 0.0606 | 0.331 | < 0.0172 | 6.88 | 0.0256
14 | COc1cccc2ccc(C(=O)c3ccccc3)nc12 | > 100 | > 100 | > 100 | > 100 | > 100 | > 100 | > 100 | > 100 | – | – | – | – | – | – | – | – | – | – | – | –
15 | N#Cc1c(NC(=O)NCc2ccccc2)sc2c1CCCC2 | > 100 | – | > 100 | 36 | > 100 | > 100 | > 100 | – | 71 | 1.79 | 0.443 | – | – | 0.677 | 0.249 | 2.29 | 2.39 | 0.559 | > 100 | 0.43
16 | CN(C)c1ccc(/C=C/c2ccnc3c(O)cccc23)cc1 | > 100 | – | > 100 | 36.6 | > 100 | > 100 | > 100 | – | – | 0.211 | 0.335 | – | – | 0.337 | 0.372 | 0.352 | 6.66 | 0.383 | > 100 | 0.364
17 | O=C(/C=C/c1ccco1)c1cc(F)c(Cl)cc1Cl | 55.8 | – | 45.1 | 44.2 | 68.3 | 48.9 | > 100 | – | 39.6 | 18.1 | 21.5 | – | – | 20.1 | 22.3 | 24.5 | 22.5 | 24.8 | 80.1 | 30.2
